Measurements as given in patent US11266655B2, “Methods and compositions for treating urea cycle disorders” (Camp4 Therapeutics Corporation, priority 2019, dated 2022).

Assays:
OTC [1] = test: OTC expression modulated by compounds, OTC/GeoMean of housekeeping genes, DMSO = 1 (Table 3A); type: cell-based, human; settings: 10 uM final concentration
SLC25A15 = test: RNA-seq of compound-treated primary human hepatocytes, SLC25A15 expression; type: cell-based; settings: primary human hepatocytes, triplicate (Table 24, FIG. 16A-B)
NAGS = type: cell-based, human
OTC [2] = test: JAK1 inhibitor dose titration in hepatocytes of donors A and B, OTC mRNA normalized to B2M; type: cell-based, human; settings: for OTC mRNA FC, Donor A / OTC mRNA FC, Donor B: normalized to B2M
Description: (§1) Next, two JAK1 inhibitors were tested at increasing concentrations in a dose titration assy. Hepatocytes from two different donors (A and B) were incubated with the various concentrations of upadacitinib or oclacitinib maleate and harvested for mRNA analysis. OTC and CPS1 mRNA were normalized to house keeping gene B2M gene expression.

CPS1 [3] = test: JAK inhibitors at 0.3 and 3 μM in primary human hepatocytes, CPS1 mRNA fold change; type: cell-based; settings: fold change vs DMSO
Description: (§2) Additional small molecules that inhibit JAK1, JAK2, JAK3, or a combination of the JAK proteins were tested in primary human hepatocytes as described in Example 2. JAK inhibitors were tested in triplicate at 0.3 μM and 3 μM. The results are shown as the fold change (mRNA FC) in the mRNA levels of OTC and CPS1 genes after treatment compared to an untreated control (DMSO) and the standard deviation (SD).

[4] = test system: chromatin domain upstream of the OTC gene; test: ATAC-seq of the OTC insulated neighborhood in inhibitor-treated hepatocytes; settings: 17 hours of inhibitor treatment
Description: Hepatocytes were seeded overnight, then the serum and other factors were removed. After 2-3 hours, the cells were treated with the compound and incubated overnight. The cells were harvested and the nuclei were prepared for the transposition reaction. […] After 9-12 cycles of PCR amplification, libraries were sequenced on an Illumina HiSeq 2000. PCR was performed using barcoded primers with extension at 72° C. for 5 minutes, PCR, then the final PCR product was sequenced.
All obtained reads from each sample were trimmed using trim galore 0.4.1 requiring Phred score ≥20 and read length ≥30 for data analysis. The trimmed reads were mapped against the human genome (hg19 build) using Bowtie2 (version 2.2.9) with the parameters: -t -q -N 1 -L 25 -X 2000 no-mixed no-discordant. All unmapped reads, non-uniquely mapped reads and PCR duplicates were removed. All the ATAC-seq peaks were called using MACS2 with the parameters --nolambda -nomodel -q 0.01 --SPMR. The ATAC-seq signal was visualized in the UCSC genome browser. ATAC-seq peaks that were at least 2 kb away from annotated promoters (RefSeq, Ensemble and UCSC Known Gene databases combined) were selected as distal ATAC-seq peaks.
The ATAC-seq experiment was done in triplicate.

CPS1 [5] = test: JAK1 inhibitor dose titration in hepatocytes of donors A and B, CPS1 mRNA normalized to B2M; type: cell-based, human; settings: for CPS1 mRNA FC, Donor A / CPS1 mRNA FC, Donor B: normalized to B2M
Description: as §1

OTC [6] = test: JAK inhibitors at 0.3 and 3 μM in primary human hepatocytes, OTC mRNA fold change; type: cell-based; settings: fold change vs DMSO
Description: as §2

[7] = both donor cell lines (A and B)

## CNC(=O)c1ccc(C)c(-n2c(C)cc(OCc3ccc(F)cc3F)c(Br)c2=O)c1 [PH-797804]
OTC [1]
  Max Value (OTC/GeoMean of HKs; DMSO = 1): 1.53

## Cl.Cn1c(=O)c(Oc2ccc(F)cc2F)cc2cnc(NC3CCOCC3)nc21 [R1487 Hydrochloride]
OTC [1]
  Max Value (OTC/GeoMean of HKs; DMSO = 1): 1.64
SLC25A15; 1 μM
  Relative SLC25A15 level vs Untreated (±Standard Deviation): 1.56 ± 0.16
SLC25A15; 10 μM
  Relative SLC25A15 level vs Untreated (±Standard Deviation): 1.51 ± 0.09

## COc1cc2c(cc1OC)CN(C(=O)/C=C/c1c(-c3ccccc3)n(C)c3ncccc13)CC2 [SIS3]
OTC [1]
  Max Value (OTC/GeoMean of HKs; DMSO = 1): 1.46
NAGS
  Fold change (Log 2) vs untreated, NAGS expression: 0.64 Log 2

## CSCC[C@H](N)C(=O)N[C@@]1(C(=O)O)CS(=O)(=O)[C@H]2[C@H](C(=O)O)[C@H]21 [pomaglumetad methionil]
OTC [1]
  Max Value (OTC/GeoMean of HKs; DMSO = 1): 1.49

## oclacitinib maleate
OTC [2]; 0.1 uM
  OTC mRNA FC, Donor A: 1.97
  OTC mRNA FC, Donor B: 2.46
OTC [2]; 0.3 uM
  OTC mRNA FC, Donor A: 2.76
  OTC mRNA FC, Donor B: 4.28
OTC [2]; 1 uM
  OTC mRNA FC, Donor A: 4.79
  OTC mRNA FC, Donor B: 5.97
OTC [2]; 3 uM
  OTC mRNA FC, Donor A: 8.92
  OTC mRNA FC, Donor B: 11.00
OTC [2]; 10 uM
  OTC mRNA FC, Donor A: 11.65
  OTC mRNA FC, Donor B: 11.46
OTC [2]; [7]
  OTC mRNA expression, dose titration: dose dependent increase
CPS1 [3]; 0.3 uM
  CPS1 mRNA FC: 1
CPS1 [3]; 3 uM
  CPS1 mRNA FC: 1.69
[4]
  newly accessible chromatin domain upstream of the OTC gene (ATAC-seq): newly accessible chromatin domain
CPS1 [5]; 0.1 uM
  CPS1 mRNA FC, Donor A: 1.61
  CPS1 mRNA FC, Donor B: 4.60
CPS1 [5]; 0.3 uM
  CPS1 mRNA FC, Donor A: 2.37
  CPS1 mRNA FC, Donor B: 4.50
CPS1 [5]; 1 uM
  CPS1 mRNA FC, Donor A: 3.12
  CPS1 mRNA FC, Donor B: 3.34
CPS1 [5]; 3 uM
  CPS1 mRNA FC, Donor A: 4.82
  CPS1 mRNA FC, Donor B: 2.57
CPS1 [5]; 10 uM
  CPS1 mRNA FC, Donor A: 5.99
  CPS1 mRNA FC, Donor B: 1.90
CPS1 [5]; [7]
  CPS1 mRNA expression, dose titration: dose dependent increase
OTC [6]; 0.3 uM
  OTC mRNA FC: 1.32
OTC [6]; 3 uM
  OTC mRNA FC: 3.14
